# Measured values: ChEMBL document CHEMBL1126335, “Aryl cyanoguanidine potassium channel openers” (Bioorg Med Chem Lett, 1992)
# “And” between values parts separate entries of the source, which are not always exact repeats. Identical values can stand only once.
# Assays:
# Format in all cases: functional
# [1] = species: Rattus norvegicus; experiment: Vasorelaxant potency required to relax methoxamine contracted male Wistar Kyoto rat thoracic aorta
# [2] = tested on: Rattus norvegicus; experiment: Antihypertensive activity expressed as percent maximum decrease in blood pressure at 45 umol/Kg for 0-6 hrs in spontaneously hypertensive male rats when administered perorally
# [3] = tested on: Rattus norvegicus; experiment: Antihypertensive activity expressed as percent maximum decrease in blood pressure at 45 umol/kg for 6-12 hrs in spontaneously hypertensive male rats when administered perorally
# [4] = tested on: Rattus norvegicus; experiment: Antihypertensive activity expressed as percent maximum decrease in blood pressure at 45 umol/kg for 18-24 hrs in spontaneously hypertensive male rats when administered perorally
# [5] = tested on: Rattus norvegicus; experiment: Antihypertensive activity expressed as percent maximum decrease in blood pressure at 45 umol/kg for 12-18 hrs in spontaneously hypertensive male rats when administered perorally
IC50 [1] [nM],Compound,Max decrease [2] [%],Max decrease [3] [%],Max decrease [4] [%],Max decrease [5]
430,CC(C)(C)/N=C(\NC#N)Nc1ccc(C#N)cc1,–,–,–,–
22,CC(/N=C(\NC#N)Nc1ccc(C#N)cc1)C(C)(C)C (centres undefined),33,26,25,26%
19000,CC(C)/N=C(\NC#N)Nc1ccc(C#N)cc1,–,–,–,–
420,CC(/N=C(\NC#N)Nc1cccc(C#N)c1)C(C)(C)C (centres undefined),–,–,–,–

# Further lines, the compound ahead of its results:
Compound,IC50 [1] [nM],Max decrease [2] [%],Max decrease [3] [%],Max decrease [4] [%],Max decrease [5]
CC(/N=C(\NC#N)Nc1cccc([N+](=O)[O-])c1)C(C)(C)C (centres undefined),170,–,–,–,–
CCC(C)(C)/N=C(\NC#N)Nc1ccc(C#N)cc1,120,–,–,–,–
CC(/N=C(\NC#N)Nc1ccccc1[N+](=O)[O-])C(C)(C)C (centres undefined),240,–,–,–,–
C/N=C(\NC#N)Nc1ccc(C#N)cc1,123000,–,–,–,–
CCC(C)(C)/N=C(\NC#N)NCc1ccc(C#N)cc1,1500,–,–,–,–
CC(/N=C(\NC#N)Nc1ccccc1)C(C)(C)C (centres undefined),880,–,–,–,–
CC(/N=C(\NC#N)Nc1ccc([N+](=O)[O-])cc1)C(C)(C)C (centres undefined),5150,–,–,–,–
CC(N/C(=N\C#N)Nc1ccncc1)C(C)(C)C (centres undefined) [PINACIDIL ANHYDROUS],70,40,–,14,21% and 23%
CC1(C)Oc2ccc(C#N)cc2[C@@H](N2CCCC2=O)[C@@H]1O [CROMAKALIM],55,63,35,42,37%
